“And” between values parts separate entries of the source, which are not always exact repeats. Equal entries are not always repeated.
How the values were obtained:
Assay type in all cases: in vivo, human
[1] = test system: children between 6 and 12 years of age with a newly diagnosed ADHD; assay: Clinical Global Impression (CGI) severity, randomized pilot trial (Example 7)
Description: (§1) The trial was performed at the Neurology Department of the Hospital Infantil de México Federico Gomez (Health National Institute for children's in Mexico) as a randomized pilot trial. Three treatment groups were compared: group A: MTP; group B: Omega 3/6; group C: MTP+Omega 3/6. Subjects were randomized to one of these groups after screening. After inclusion to the trial, the subjects underwent three different trial periods: the 4 weeks titration period (only for the group A and group C in relation to the MTP), the 12 months evaluation period and the 6 months follow up period (FIG. 1)
(§2) A total of 107 children between 6 and 12 years of age with a newly diagnosed ADHD entered the screening phase of the trial. The presence of any previous ADHD treatment was an exclusion criterion. 17 children were screening failures and could not be included to the trial. After written informed consent by the parents or tutors of the children, a total of 90 patients were distributed to the three groups following a randomization to the three groups against a set of arbitrary numbers.
(§3) The omega-3/omega6 fatty acid supplement was used. The daily dosage of this omega 3/6 was of three capsules twice daily, corresponding to a daily dose of 558 mg EPA, 174 mg DHA and 60 mg gamma-linolenic. This specific product was chosen because it was the product and the daily dosage used in three previous clinical studies showing significant positive improvements on ADHD related symptoms without showing significant adverse events.
(§4) The stimulant used in this trial was short or long acting methylphenidate (hereafter termed MTP). The daily dose was calculated to start at a concentration of 0.5 mg/kg/day to reach a maximum of 1 mg/kg/day depending on the response and the tolerance. The doses were adjusted weekly.
(§5) Clinical assessments were made at four time points: at baseline, after 3 months, after 6 months and after 12 months. The study consisted in six stages with a total of 12 visits including the screening visit (screening visit 0) and the period of selection and titration of the medication in the case of the group A & C (first 4 weeks). At baseline all the included patients were newly diagnosed with ADHD being drug-naïve (no previous treatment with omega 3/6, MTP or atomoxetine was permitted). ADHD diagnosis was made for patients who met DMS-IV criteria of any subtype and by using the ADHD-RS-VE (Spanish version) and the CEAL (Latin American scale for ADHD). The presence of any associated condition (comorbidity) was assessed by clinical interview according to DSM-IV criteria. The investigator made a medical evaluation, including weight, height, cephalic perimeter, neurological evaluation, sleep patrons and other comorbidities. A questionnaire for the symptoms of fatty acids deficiency was applied, where 0 means without symptoms and 3 with a high degree of symptoms. We analyzed blood samples for biometry hematic and hepatic function.
(§6) For clinically meaningful response, definition of clinical trials with ADHD medications was used, that is: a reduction of at least 25% of the symptoms scores on the ADHD-RS scale. The other important variable was the permanence time in the study measuring efficacy and tolerability. The overall clinical impression of symptom severity and functional impairment was measured with the CGI severity scale, which is a clinician rating of the patient's symptom severity related to the clinician's total experience with ADHD patients. […]

[2] = test system: children between 6 and 12 years of age with a newly diagnosed ADHD; assay: Side effects / adverse events, randomized pilot trial (Example 7)
Description: as §1, §2, §3, §4
The patients was evaluated at baseline including a physical examination, including height and weight, pulse and blood pressure, a neuromotor examination and assessment of the general level of functioning with CGI. We evaluated each week for the first four weeks and each month for a year. The adverse events (AE) were evaluated at any clinic event appointed by the parents and with an impact over the patients, independently if it was associated or not with the medication. This includes exacerbation of the preexistence symptoms. It was important to note the moment of these AE.

[3] = test system: children between 6 and 12 years of age with a newly diagnosed ADHD; assay: ADHD Rating Scale Spanish version (parent ADHD-RS-SV), randomized pilot trial (Example 7)
Description: as §1, §2
Inclusion criteria: Patients from 6 to 12 years old, diagnosed as having attention-deficit hyperactivity disorder by the DSM-IV, agreement to take part in the survey (letter of informed consent signed by the parent or tutor and letter of acknowledgement). Exclusion criteria: any Axis I psychiatric diagnosis other than ADHD except oppositional defiant behaviour disorder, neurological deficit, seizures or tics; previous treatment of suitable doses of methylphenidate; patients with known hypersensitivity to omega-3.
as §3, §4, §5, §6

[4] = test system: Newly diagnosed ADHD children; assay: RCT of omega-3/6 alone or in combination with methylphenidate, one year follow-up (Example 6); conditions: evaluated by the parents
Description: Newly diagnosed ADHD children of both genders, 6 to 12 years old, were included in a RCT with one year follow-up in a 3-arm design (A: Omega-3/6; B: Omega 3/6+MTP; and C: MTP). The omega-3/6 fatty acid dosage used was EPA/DHA/GLA (9:3:1) in a total of 792 mg/day (Equazen™). MTP was prescribed in a dosage of 1 mg/kg/day (titration).
The ADHD diagnosis and follow up were made using the Diagnostic and Statistical Manual of Mental Disorders fourth edition (DSM-IV) scale, the ADHD Rating Scale Spanish version (ADHD-RS-VE), and the CEAL (Latin-American scale for ADHD) and overall clinical impression (CGI). For clinically meaningful response, a reduction of at least 25% of the symptoms was used. The adverse events (AE) were evaluated by the parents based on the impact on the patients.

[5] = test system: children between 6 and 12 years of age with a newly diagnosed ADHD; assay: Continuity in the study, withdrawals and MTP dose needed, randomized pilot trial (Example 7); conditions: 12 months, n = 30 per group
Description: as §1, with “1) […]” for “1)”
The stimulant used in this trial was short or long acting methylphenidate (hereafter termed MTP). The daily dose was calculated to start at a concentration of 0.5 mg/kg/day to reach a maximum of 1 mg/kg/day depending on the response and the tolerance. […]
as §6, with “The other important variable was the permanence time in the study measuring efficacy and tolerability.” left out

[6] = in % of the subjects, n = 30 per group

COC(=O)C(c1ccccc1)C1CCCCN1 (stereo not drawn) [MTP, methylphenidate]
CGI severity category reached after treatment ([1]; from marked/severe before the treatment): mild/moderate
investigator rated CGI, baseline ([1]; scale 1 (normal) to 7, baseline mean): 6.30±0.65
investigator rated CGI, first treatment month ([1]; scale 1 to 7, 1 month): 3.67±1.21
investigator rated CGI severity at 3 months ([1]; scale 1 to 7, 3 months): 4.42±1.02
investigator rated CGI severity at 6 months ([1]; scale 1 to 7, 6 months): 3.75±0.44 and 3.90±0.45
Headache [2, 6]: 23.3%
Hiporexia [2, 6]: 53.3%
Irritability [2, 6]: 16.7%
Pallor [2, 6]: 16.7%
Palpitation [2, 6]: 13.3%
Seasickness [2, 6]: 1.0%
Sleeplessness [2, 6]: 6.7%
Tension [2, 6]: 16.7%
Tics [2, 6]: 6.7%
Tremor [2, 6]: 1.0%
hyporexia, number of patients ([2]; of 30 per group): 16 patients
ADHD RS total score after one month ([3]; after one month treatment): 27.6±4.97
response of the hyperactivity symptom ([3]; comparison of the three treatments): greater impact
ADHD RS, total score, After 3 months ([3]; mean, after 3 months): 25.29 ± 4.18
Hyperactive/impulsive subscale, After 3 months ([3]; mean, after 3 months): 13.25±3.05
Inattentive subscale, After 3 months ([3]; mean, after 3 months): 12.04±1.78
ADHD RS, total score, After 12 months ([3]; mean, after 12 months): 23.55 ± 1.72
Hyperactive/impulsive subscale, After 12 months ([3]; mean, after 12 months): 12.1±1.29
Inattentive subscale, After 12 months ([3]; mean, after 12 months): 11.45±1.32
ADHD RS, total score, Baseline ([3]; mean, baseline): 41.43±4.32 and 41.43 ± 4.39
Hyperactive/impulsive subscale, Baseline ([3]; mean, baseline): 19.93±5.11
Inattentive subscale, Baseline ([3]; mean, baseline): 21.47±3.20
most frequent AE [4]: weight reduction, hyporexia, and anxiety
patients who left the study because of side effects [5]: 6 patients
patients who withdrew for lack of efficacy [5]: 2 patients
